Measured values: the NIST ThermoML archive (doi:10.1016/j.jct.2010.09.008)
± gives the expanded uncertainty stated by the source.

How the values were obtained:
[1] = 101.33 kPa, Liquid, Vibrating tube method
[2] = relative permittivity at zero frequency (dimensionless); conditions: 101.33 kPa, Liquid, AC method
[3] = xn = mol fraction of the nth substance listed; conditions: 101.3 kPa, Liquid, Vibrating tube method
[4] = relative permittivity at zero frequency (dimensionless); xn = mol fraction of the nth substance listed; conditions: 101.3 kPa, Liquid, AC Method

Compound `COCCOC` [1,2-dimethoxyethane] has a mass density ([1]; 288.15 K) of 872.05 ± 0.22 kg/m3, a mass density ([1]; 298.15 K) of 861.14 ± 0.22 kg/m3 and a mass density ([1]; 308.15 K) of 850.06 ± 0.22 kg/m3. The “relative permittivity at zero frequency” value ([2]; 288.15 K) was 7.41 ± 0.15, the “relative permittivity at zero frequency” value ([2]; 298.15 K) was 7.07 ± 0.14 and the “relative permittivity at zero frequency” value ([2]; 308.15 K) was 6.75 ± 0.14.

`COCCOC` [1,2-dimethoxyethane] + CCCCCCC gave a mass density ([3]; 288.15 K, x2 = 0.0495) of 857.82 ± 0.23 kg/m3, a mass density ([3]; 288.15 K, x2 = 0.0995) of 844.28 ± 0.23 kg/m3 and a mass density ([3]; 288.15 K, x2 = 0.2045) of 818.14 ± 0.23 kg/m3. For the same compound, the mass density ([3]; 288.15 K, x2 = 0.2979) was 797.21 ± 0.24 kg/m3, the mass density ([3]; 288.15 K, x2 = 0.403) was 775.91 ± 0.25 kg/m3 and the mass density ([3]; 288.15 K, x2 = 0.5042) was 757.33 ± 0.25 kg/m3. The mass density ([3]; 288.15 K, x2 = 0.5998) was 741.27 ± 0.26 kg/m3, the mass density ([3]; 288.15 K, x2 = 0.7021) was 725.61 ± 0.27 kg/m3 and the mass density ([3]; 288.15 K, x2 = 0.8053) was 711.33 ± 0.28 kg/m3. The mass density ([3]; 288.15 K, x2 = 0.8998) was 699.44 ± 0.29 kg/m3, the mass density ([3]; 288.15 K, x2 = 0.9508) was 693.43 ± 0.3 kg/m3 and the mass density ([3]; 298.15 K, x2 = 0.0503) was 846.65 ± 0.23 kg/m3. It also gave a mass density ([3]; 298.15 K, x2 = 0.0974) of 834.02 ± 0.23 kg/m3, a mass density ([3]; 298.15 K, x2 = 0.2008) of 808.4 ± 0.23 kg/m3 and a mass density ([3]; 298.15 K, x2 = 0.2994) of 786.5 ± 0.24 kg/m3. For the same compound, the mass density ([3]; 298.15 K, x2 = 0.401) was 766.2 ± 0.25 kg/m3, the mass density ([3]; 298.15 K, x2 = 0.5026) was 747.97 ± 0.25 kg/m3 and the mass density ([3]; 298.15 K, x2 = 0.5967) was 732.41 ± 0.26 kg/m3. The mass density ([3]; 298.15 K, x2 = 0.6994) was 716.96 ± 0.27 kg/m3, the mass density ([3]; 298.15 K, x2 = 0.8019) was 702.94 ± 0.28 kg/m3 and the mass density ([3]; 298.15 K, x2 = 0.9009) was 690.67 ± 0.29 kg/m3. It also gave a mass density ([3]; 298.15 K, x2 = 0.9509) of 684.9 ± 0.3 kg/m3, a mass density ([3]; 308.15 K, x2 = 0.0496) of 836.12 ± 0.23 kg/m3 and a mass density ([3]; 308.15 K, x2 = 0.0998) of 822.77 ± 0.23 kg/m3. The mass density ([3]; 308.15 K, x2 = 0.2009) was 798.1 ± 0.24 kg/m3, the mass density ([3]; 308.15 K, x2 = 0.3035) was 775.66 ± 0.24 kg/m3 and the mass density ([3]; 308.15 K, x2 = 0.4011) was 756.35 ± 0.25 kg/m3. For the same compound, the mass density ([3]; 308.15 K, x2 = 0.5021) was 738.24 ± 0.26 kg/m3, the mass density ([3]; 308.15 K, x2 = 0.6) was 722.36 ± 0.26 kg/m3 and the mass density ([3]; 308.15 K, x2 = 0.7018) was 707.33 ± 0.27 kg/m3. The mass density ([3]; 308.15 K, x2 = 0.8036) was 693.71 ± 0.28 kg/m3, the mass density ([3]; 308.15 K, x2 = 0.9014) was 681.82 ± 0.29 kg/m3 and the mass density ([3]; 308.15 K, x2 = 0.9519) was 676.15 ± 0.3 kg/m3. The “relative permittivity at zero frequency” value ([4]; 288.15 K, x2 = 0.1012) was 6.32 ± 0.13, the “relative permittivity at zero frequency” value ([4]; 288.15 K, x2 = 0.2002) was 5.43 ± 0.11 and the “relative permittivity at zero frequency” value ([4]; 288.15 K, x2 = 0.3003) was 4.69 ± 0.09. The “relative permittivity at zero frequency” value ([4]; 288.15 K, x2 = 0.3997) was 4.07 ± 0.08, the “relative permittivity at zero frequency” value ([4]; 288.15 K, x2 = 0.5024) was 3.52 ± 0.07 and the “relative permittivity at zero frequency” value ([4]; 288.15 K, x2 = 0.6016) was 3.07 ± 0.06. The “relative permittivity at zero frequency” value ([4]; 288.15 K, x2 = 0.7002) was 2.72 ± 0.05, the “relative permittivity at zero frequency” value ([4]; 288.15 K, x2 = 0.7979) was 2.42 ± 0.05 and the “relative permittivity at zero frequency” value ([4]; 288.15 K, x2 = 0.9022) was 2.15 ± 0.04. The “relative permittivity at zero frequency” value ([4]; 288.15 K, x2 = 0.9511) was 2.04 ± 0.04, the “relative permittivity at zero frequency” value ([4]; 298.15 K, x2 = 0.1013) was 6.04 ± 0.12 and the “relative permittivity at zero frequency” value ([4]; 298.15 K, x2 = 0.2013) was 5.2 ± 0.1. For the same compound, the “relative permittivity at zero frequency” value ([4]; 298.15 K, x2 = 0.3011) was 4.5 ± 0.09, the “relative permittivity at zero frequency” value ([4]; 298.15 K, x2 = 0.3992) was 3.92 ± 0.08 and the “relative permittivity at zero frequency” value ([4]; 298.15 K, x2 = 0.503) was 3.41 ± 0.07. For the same compound, the “relative permittivity at zero frequency” value ([4]; 298.15 K, x2 = 0.6035) was 3 ± 0.06, the “relative permittivity at zero frequency” value ([4]; 298.15 K, x2 = 0.7028) was 2.67 ± 0.05 and the “relative permittivity at zero frequency” value ([4]; 298.15 K, x2 = 0.7982) was 2.38 ± 0.05. For the same compound, the “relative permittivity at zero frequency” value ([4]; 298.15 K, x2 = 0.902) was 2.13 ± 0.04, the “relative permittivity at zero frequency” value ([4]; 298.15 K, x2 = 0.9497) was 2.03 ± 0.04 and the “relative permittivity at zero frequency” value ([4]; 308.15 K, x2 = 0.0493) was 6.26 ± 0.13. For the same compound, the “relative permittivity at zero frequency” value ([4]; 308.15 K, x2 = 0.1001) was 5.79 ± 0.12, the “relative permittivity at zero frequency” value ([4]; 308.15 K, x2 = 0.2005) was 4.99 ± 0.1 and the “relative permittivity at zero frequency” value ([4]; 308.15 K, x2 = 0.3016) was 4.34 ± 0.09. The “relative permittivity at zero frequency” value ([4]; 308.15 K, x2 = 0.399) was 3.8 ± 0.08, the “relative permittivity at zero frequency” value ([4]; 308.15 K, x2 = 0.5009) was 3.32 ± 0.07 and the “relative permittivity at zero frequency” value ([4]; 308.15 K, x2 = 0.603) was 2.93 ± 0.06. The “relative permittivity at zero frequency” value ([4]; 308.15 K, x2 = 0.7028) was 2.6 ± 0.05, the “relative permittivity at zero frequency” value ([4]; 308.15 K, x2 = 0.802) was 2.33 ± 0.05 and the “relative permittivity at zero frequency” value ([4]; 308.15 K, x2 = 0.8974) was 2.11 ± 0.04. For the same compound, the “relative permittivity at zero frequency” value ([4]; 308.15 K, x2 = 0.9505) was 2.01 ± 0.04.

In the case of `COCCOCCOCCOCCOC` [2,5,8,11,14-pentaoxapentadecane], the mass density ([1]; 288.15 K) is reported as 1015.96 ± 0.3 kg/m3, the mass density ([1]; 298.15 K) is reported as 1006.68 ± 0.29 kg/m3 and the mass density ([1]; 308.15 K) is reported as 997.27 ± 0.29 kg/m3. The “relative permittivity at zero frequency” value ([2]; 288.15 K) was 8.04 ± 0.16, the “relative permittivity at zero frequency” value ([2]; 298.15 K) was 7.78 ± 0.16 and the “relative permittivity at zero frequency” value ([2]; 308.15 K) was 7.55 ± 0.15.
